Series [1] addresses hKMT2D SET domain (Win-SET protein that lost the Win motif by proteolysis) (human) (UniProt O14686).
Series [2] has the same target. This is another data set of the same source.
In series [3] the target is T1, SET/WRAD2 complex (Homo sapiens, UniProt O14686).
T1 construct: expressing amino acids 5308-5537 of the hKMT2D catalytic SET domain; 6xHis + TEV site (N, cleaved yes); made in house; host or cells: KMT2D Win-SET: Sf21 (baculovirus); H3 peptides bought from Chinese Peptide Company
The series can be described thus: Product and dead-end inhibitor studies, MTase-Glo. The class given is biochemical. The arrangement: key to inhibition pattern: C = competitive; NC = noncompetitive; UC = uncompetitive. The protocol: (§1) SET domain activity was monitored with a quantitative endpoint assay determining AdoHcy production using MTase-Glo by Promega.[39] Assays were performed as time courses at room temperature with buffer constituents, 50 mM Tris, pH 7.5, 50 mM NaCl, 1 mM DTT, 1% DMSO, and 0.005% w/v Triton X-100 in deionized water. […] Addition of 1 μL of 0.5% v/v TFA was used to stop the methylation reaction at defined time points; 1 μL of 6× concentrated MTase-Glo reagent was added to each well and incubated at room temperature. After 30 min, 6 μL of the prefiltered MTase-Glo detection reagent was added and incubated for a further 30 min at room temperature. Luminescence was measured using an Envision 2101 Multilabel plate reader, and product concentrations were calculated using an AdoHcy standard curve. Steady-state rates were obtained by plotting AdoHcy production over time and normalized to SET domain concentration. Experiments were performed in triplicate and expressed as the mean ± SD. Data were analyzed using nonlinear regression in GraphPad Prism v9.1.
Steady-state rates were measured in substrate-inhibitor matrix experiments. Dead-end inhibitor experiments were performed with the second substrate fixed at KM, while product inhibitor experiments fixed the second substrate at KM or 20× KM. Assays using 20× KM AdoMet used a cofactor adjusted to pH 7.5. […] Steady-state rates were globally fitted to competitive, uncompetitive, and noncompetitive inhibition (eqs 6, 7, and 8, respectively).
Competitive inhibition [drawing 6] 6 Uncompetitive inhibition [drawing 7] 7 Noncompetitive inhibition [drawing 8] 8 Mixed inhibition [drawing 9] 9 where ν is the initial rate, Vmax is the maximum velocity of the uninhibited reaction, [S] is the substrate concentration of the varied substrate, [I] is the inhibitor concentration, KM is the Michaelis–Menten constant, and Ki is the inhibition constant. To resolve any ambiguities in assigning inhibition type, the mixed inhibition model was used (eq 9), to derive the value of α, which is a measure of competitive or uncompetitive nature.

Series [4] has as its system C[S+](CC[C@H](N)C(=O)[O-])C[C@H]1O[C@@H](n2cnc3c(N)ncnc32)[C@H](O)[C@@H]1O. The series can be described thus: purified protein, by the assay type. In kind it is biochemical, human. The conditions noted are these: pH 7.5.
Series [5] has the same test system. The series can be described thus: Steady-state substrate specificity (peptide and nucleosome substrates), MTase-Glo. The conditions noted are these: other: WRAD2, eq 1, pH 7.5. The class given is biochemical, human.
In the next series the target is T2, hKMT2D SET domain (Homo sapiens, UniProt O14686).
T2 construct: expressing amino acids 5308-5537 of the hKMT2D catalytic SET domain; 6xHis + TEV site (N, cleaved yes); made in house; host or cells: KMT2D Win-SET: Sf21 (baculovirus); H3 peptides bought from Chinese Peptide Company
T2 sequence (Q9UBL3 95-628): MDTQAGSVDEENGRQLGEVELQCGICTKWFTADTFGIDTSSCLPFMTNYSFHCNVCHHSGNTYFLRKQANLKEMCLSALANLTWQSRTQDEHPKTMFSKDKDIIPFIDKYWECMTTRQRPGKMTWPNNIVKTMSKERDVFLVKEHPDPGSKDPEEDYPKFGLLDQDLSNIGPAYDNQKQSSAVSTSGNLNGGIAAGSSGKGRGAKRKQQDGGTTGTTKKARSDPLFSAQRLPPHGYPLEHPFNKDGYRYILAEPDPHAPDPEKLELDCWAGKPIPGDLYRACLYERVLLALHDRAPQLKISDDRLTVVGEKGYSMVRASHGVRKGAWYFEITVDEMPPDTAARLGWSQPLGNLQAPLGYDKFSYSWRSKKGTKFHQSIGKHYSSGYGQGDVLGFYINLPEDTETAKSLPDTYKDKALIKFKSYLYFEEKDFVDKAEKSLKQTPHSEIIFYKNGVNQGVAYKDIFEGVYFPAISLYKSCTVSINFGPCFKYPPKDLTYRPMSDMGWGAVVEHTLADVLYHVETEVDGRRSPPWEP
T2 sequence (Q9C005 whole entry, further chain, the tested form may be a part): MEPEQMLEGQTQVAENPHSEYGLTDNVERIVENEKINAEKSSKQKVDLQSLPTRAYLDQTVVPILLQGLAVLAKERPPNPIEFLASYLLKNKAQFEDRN
T2 sequence (O14686 5361-5537): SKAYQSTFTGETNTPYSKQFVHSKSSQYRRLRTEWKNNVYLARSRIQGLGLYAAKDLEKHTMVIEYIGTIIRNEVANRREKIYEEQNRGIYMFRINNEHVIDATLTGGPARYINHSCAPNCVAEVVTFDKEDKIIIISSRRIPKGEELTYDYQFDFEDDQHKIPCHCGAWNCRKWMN
T2 sequence (Q15291 whole entry, further chain, the tested form may be a part): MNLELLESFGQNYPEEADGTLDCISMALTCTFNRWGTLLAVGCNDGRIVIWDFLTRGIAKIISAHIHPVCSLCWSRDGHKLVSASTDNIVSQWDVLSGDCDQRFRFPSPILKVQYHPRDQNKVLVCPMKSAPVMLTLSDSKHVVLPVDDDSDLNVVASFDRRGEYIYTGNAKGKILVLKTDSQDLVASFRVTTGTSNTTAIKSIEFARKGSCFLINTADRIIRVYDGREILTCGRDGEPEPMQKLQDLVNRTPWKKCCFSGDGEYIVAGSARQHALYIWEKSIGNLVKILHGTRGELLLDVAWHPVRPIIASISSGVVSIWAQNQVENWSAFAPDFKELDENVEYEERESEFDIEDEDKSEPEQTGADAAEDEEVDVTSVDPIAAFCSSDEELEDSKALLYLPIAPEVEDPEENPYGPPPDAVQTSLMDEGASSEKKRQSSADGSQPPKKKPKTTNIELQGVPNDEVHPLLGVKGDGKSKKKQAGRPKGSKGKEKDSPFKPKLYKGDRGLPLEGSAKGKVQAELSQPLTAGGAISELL
The series can be described thus: WRAD2 titration: MTase-Glo steady-state substrate matrix experiments. The class given is biochemical. The conditions noted are these: eq 1, read-out: Kd^(AdoMet). On the procedure:
as §1
(§2) Steady-state rates were measured in substrate matrix experiments. Data were globally fitted to ternary Bi–Bi and Ping–Pong models to obtain kcat and KM parameters (eqs 1 and 2).
The ternary Bi–Bi model [drawing 1] 1 The Ping–Pong model [drawing 2] 2 where ν is the initial rate, Vmax is the maximum velocity, [A] is the concentration of the varied substrate, [B] the concentration of the fixed substrate, KM^A and KM^B are the Michaelis constants of the varied and fixed substrates, respectively, and Kd is the dissociation constant of the varied substrate. […]

The target in series [6] is T1, SET/WRAD2 complex. As to the kind of experiment: Steady-state substrate specificity (peptide and nucleosome substrates), MTase-Glo. The class given is biochemical. On the procedure:
as §1, §2
Target sequence in this assay (Q15291 whole entry, the tested form may be a part): as the sequence (Q15291 whole entry, further chain, the tested form may be a part) above
Target sequence in this assay (Q9UBL3 95-628, further chain): as the sequence (Q9UBL3 95-628) above
Target sequence in this assay (Q9C005 whole entry, further chain, the tested form may be a part): as the sequence (Q9C005 whole entry, further chain, the tested form may be a part) above
Target sequence in this assay (O14686 5361-5537): as the sequence (O14686 5361-5537) above
The ternary Bi–Bi model [drawing 1] 1 The Ping–Pong model [drawing 2] 2 where ν is the initial rate, Vmax is the maximum velocity, [A] is the concentration of the varied substrate, [B] the concentration of the fixed substrate, KM^A and KM^B are the Michaelis constants of the varied and fixed substrates, respectively, and Kd is the dissociation constant of the varied substrate.

Series [7] concerns the target T3, SET/Ash2L/RbBP5 minimal complex (Homo sapiens, UniProt O14686).
T3 construct: 6xHis + TEV site (N); made in house; RbBP5 peptide synthetic, Chinese Peptide Company
As to the kind of experiment: Substrate matrix experiment with the minimal complex, MTase-Glo. In kind it is biochemical. The conditions noted are these: read-out: Kd^(AdoMet). On the procedure:
as §1
The ternary Bi–Bi model [drawing 1] 1 The Ping–Pong model [drawing 2] […]

Series [8] addresses T4, His-SET (5382–5537) + ASH2L (380-496-ISGRGS-539-598) + RbBP5 peptide (Homo sapiens, UniProt O14686).
T4 construct: made in house; RbBP5 peptide synthetic, Chinese Peptide Company
As to the kind of experiment: SPR binding assays (steady-state affinity). To be noted: minimal complex; 1:1 interaction model.
Experimental: Surface plasmon resonance experiments were performed using a T200 instrument (Cytiva) equipped with a research-grade NTA sensor S chip (Cytiva) at 20 °C. For immobilization, the instrument was primed with a buffer composed of 10 mM HEPES, pH 7.5, 150 mM NaCl, 0.5 mM TCEP, and 0.05% Tween 20. The NTA chip was conditioned with three 2 min injections of 50 mM NaOH/1 M NaCl and a 2 min injection of 250 mM EDTA. Protein and reference flow cells were then prepared by a 2 min injection of 1 mM NiCl2 and a 7 min injection of 0.2 M EDC/ 0.05 M NHS. Immediately, the protein (500 nM His-SET (5382–5537) + ASH2L (380-496-ISGRGS-539-598) + RbBP5 peptide in immobilization buffer) was injected over the measurement flow cell to the desired RU level, followed by deactivation with a 7 min injection of 1 M ethanolamine pH 8 of all flow cells. For binding measurements, the system was then primed in a running buffer consisting of 50 mM Tris pH 7.5, 150 mM NaCl, 1 mM TCEP, 1–2% DMSO, and 0.05% Tween 20. […] Data processing included solvent correction and blank subtraction. The steady-state data were analyzed using Biaevaluation/Insight Software 1.1 (GE Healthcare/Cytiva) using an implemented 1:1 interaction model.

Setting [9] is: varied substrate AdoMet, fixed substrate at KM.
Where [10] appears, read: varied substrate H3_1–21, fixed substrate at KM.
Where [11] appears, read: varied substrate AdoMet, fixed substrate at 20× KM.

Read-outs that look alike come from different tables or passages of the source.

hKMT2D SET domain (Win-SET protein that lost the Win motif by proteolysis) (human), sequence (O14686 5362-5537): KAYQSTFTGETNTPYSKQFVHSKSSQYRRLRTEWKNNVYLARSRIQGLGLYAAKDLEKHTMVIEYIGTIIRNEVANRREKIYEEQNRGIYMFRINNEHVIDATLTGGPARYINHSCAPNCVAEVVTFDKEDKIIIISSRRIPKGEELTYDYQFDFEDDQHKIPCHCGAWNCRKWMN
Ash2L (absent small or homoeotic 2-like), full length, sequence (Q9UBL3 whole entry): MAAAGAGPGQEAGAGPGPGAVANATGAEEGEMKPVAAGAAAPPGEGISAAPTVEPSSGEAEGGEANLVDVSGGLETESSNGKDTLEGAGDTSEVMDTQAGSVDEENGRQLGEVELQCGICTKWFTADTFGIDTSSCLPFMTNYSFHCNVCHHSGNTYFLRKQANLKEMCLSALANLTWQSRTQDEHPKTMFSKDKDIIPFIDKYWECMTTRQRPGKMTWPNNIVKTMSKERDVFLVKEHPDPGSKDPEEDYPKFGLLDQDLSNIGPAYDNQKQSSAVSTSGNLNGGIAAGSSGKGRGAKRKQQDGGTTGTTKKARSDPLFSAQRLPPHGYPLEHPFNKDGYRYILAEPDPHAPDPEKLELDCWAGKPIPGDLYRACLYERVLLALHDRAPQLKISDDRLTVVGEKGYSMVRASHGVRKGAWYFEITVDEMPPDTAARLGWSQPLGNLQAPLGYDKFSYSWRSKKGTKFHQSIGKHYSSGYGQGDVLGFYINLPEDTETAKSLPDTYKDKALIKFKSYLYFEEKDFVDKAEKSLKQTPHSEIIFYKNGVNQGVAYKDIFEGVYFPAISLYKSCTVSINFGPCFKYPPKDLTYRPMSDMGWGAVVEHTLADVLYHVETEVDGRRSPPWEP
T3 sequence (O14686 5382-5537, one chain of several): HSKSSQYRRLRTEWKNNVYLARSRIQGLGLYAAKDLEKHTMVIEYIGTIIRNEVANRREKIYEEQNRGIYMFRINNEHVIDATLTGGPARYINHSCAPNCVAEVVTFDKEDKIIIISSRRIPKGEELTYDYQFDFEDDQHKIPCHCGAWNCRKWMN
T4 sequence (O14686 5382-5537): as the sequence (O14686 5382-5537, one chain of several) above
RbBP5 (retinoblastoma-binding protein), full length, sequence (Q15291 whole entry): as the sequence (Q15291 whole entry, further chain, the tested form may be a part) above

In series [1], “Ash2L (absent small or homoeotic 2-like), full length (from UniProt Q9UBL3 1-628) (natural protein)” gave an H3 1-21 affinity (KM) of the SET domain with Ash2L alone, 1:1, 5 μM AdoMet of 2 fold. Further, in [2], the Kd assigned to Ash2L from the WRAD2 titration of H3 1-21 affinity (steady-state kinetics) turned out to be 4 nM.
On to `Nc1ncnc2c1ncn2[C@@H]1O[C@H](C[C@@H](N)CC[C@H](N)C(=O)O)[C@@H](O)[C@H]1O` [sinefungin], for which, on SET/WRAD2 complex [3] (setting [9]), the affinity, expressed as Ki, was 11000 ± 460 nM; the inhibition pattern entry is “C”; the “α (mixed inhibition model)” value stood at 21.1. Further, at SET/WRAD2 complex [3] (setting [10]), the Ki came to 10300 ± 790 nM, the inhibition pattern result is recorded as “UC” and the “α (mixed inhibition model)” value is 0.16.
In the case of hKMT2D SET domain (Homo sapiens), the Km in series [4] (other: 25 nM WRAD2, Ping–Pong model eq 2, substrate H3_1–21) turned out to be 5.10 ± 0.32 µM; in series [4] (other: [WRAD2] 0 nM, [SET] 125 nM, eq 1), 5.38 ± 1.0 µM; in series [4] (other: [WRAD2] 0.125 nM, [SET] 125 nM, eq 1) it was 5.48 ± 1.25 µM; in series [4] (other: [WRAD2] 0.5 nM, [SET] 125 nM, eq 1), 3.61 ± 0.51 µM; in series [4] (other: [WRAD2] 1 nM, [SET] 125 nM, eq 1) it was 4.55 ± 0.62 µM; in [4] (other: [WRAD2] 2 nM, [SET] 125 nM, eq 1) it was 4.18 ± 0.50 µM. In addition, the Km turned out to be 2.36 ± 0.28 µM in [4] (other: [WRAD2] 4 nM, [SET] 125 nM, eq 1); 3.07 ± 0.16 µM in [4] (other: [WRAD2] 6.25 nM, [SET] 30 nM, eq 1); 3.89 ± 0.33 µM in [4] (other: [WRAD2] 10 nM, [SET] 30 nM, eq 1); 4.77 ± 0.22 µM in series [4] (other: [WRAD2] 15 nM, [SET] 30 nM, eq 1); 4.65 ± 0.34 µM in series [4] (other: [WRAD2] 25 nM, [SET] 30 nM, eq 1, substrate H3_1–21); 4.71 ± 0.25 µM in series [4] (other: [WRAD2] 125 nM, [SET] 30 nM, eq 1). In addition, in series [4] (other: [WRAD2] […], [SET] 125 nM, eq 1), the Km is 6.28 ± 0.65 µM.
As to SET/WRAD2 complex (Homo sapiens), the results for the Km in [5] (substrate Me1H3_1–21) and in series [5] (substrate Me2H3_1–21) were 5.22 ± 0.32 µM and 3.48 ± 0.36 µM, respectively.
In turn, “RbBP5 (retinoblastoma-binding protein), full length (from UniProt Q15291 1-538) (natural protein)” gave a Kd assigned to RbBP5 from the WRAD2 titration of kcat (steady-state kinetics) in series [2] of 12 nM.
As to `Nc1ncnc2c1ncn2[C@@H]1O[C@H](CSCC[C@H](N)C(=O)O)[C@@H](O)[C@H]1O` [AdoHcy, S-adenosyl-L-homocysteine], the values for the Ki on SET/WRAD2 complex [3] (setting [11]), at SET/WRAD2 complex [3] (setting [9]) and at SET/WRAD2 complex [3] (setting [10]) were 2290 ± 200 nM, 4950 ± 620 nM and 5380 ± 410 nM, respectively. Moreover, the inhibition pattern result at SET/WRAD2 complex [3] (setting [11]) was “C”; at SET/WRAD2 complex [3] (setting [9]) it was “C”; on SET/WRAD2 complex [3] (varied substrate H3_1–21, fixed substrate at 20× KM), “no inhibition”; on SET/WRAD2 complex [3] (setting [10]), “NC”. Moreover, the entries for the “α (mixed inhibition model)” value at SET/WRAD2 complex [3] (setting [11]), at SET/WRAD2 complex [3] (setting [9]) and on SET/WRAD2 complex [3] (setting [10]) were 6.8, greater than 1000 and 0.56, respectively.
`C[S+](CC[C@H](N)C(=O)[O-])C[C@H]1O[C@@H](n2cnc3c(N)ncnc32)[C@H](O)[C@@H]1O` (stereo partly drawn) [AdoMet, S-adenosyl-L-methionine]: the Kd stood at 5930 ± 1200 nM on hKMT2D SET domain ([WRAD2] 0 nM, [SET] 125 nM); 4990 ± 1500 nM on hKMT2D SET domain ([WRAD2] 0.125 nM, [SET] 125 nM); 2930 ± 600 nM at hKMT2D SET domain ([WRAD2] 0.5 nM, [SET] 125 nM); 1610 ± 580 nM on hKMT2D SET domain ([WRAD2] 1 nM, [SET] 125 nM); 610 ± 360 nM on hKMT2D SET domain ([WRAD2] 2 nM, [SET] 125 nM); 650 ± 380 nM on hKMT2D SET domain ([WRAD2] 4 nM, [SET] 125 nM). Moreover, the dissociation constant Kd at hKMT2D SET domain ([WRAD2] 6.25 nM, [SET] 30 nM) was 1540 ± 360 nM; on hKMT2D SET domain ([WRAD2] 10 nM, [SET] 30 nM) it was 1420 ± 560 nM; at hKMT2D SET domain ([WRAD2] 15 nM, [SET] 30 nM), 990 ± 300 nM; at hKMT2D SET domain ([WRAD2] 25 nM, [SET] 30 nM, substrate H3_1–21), 850 ± 480 nM; on hKMT2D SET domain ([WRAD2] 125 nM, [SET] 30 nM) it was 540 ± 310 nM; on hKMT2D SET domain ([WRAD2] […], [SET] 125 nM), 5020 ± 680 nM. Moreover, the Kd at SET/WRAD2 complex [6] (eq 1, substrate Me1H3_1–21, read-out: Kd^(AdoMet)) is 3760 ± 490 nM; at SET/WRAD2 complex [6] (eq 1, substrate Me2H3_1–21, read-out: Kd^(AdoMet)), 40 nM; in [7], 7630 ± 460 nM; in series [8] it was 9000 ± 2000 nM.

For the origin of these results see paper PMC9494746 (Biochemistry, 2022).
